Data taken from PMC6214985, “Potassium usnate, a water-soluble usnic acid salt, shows enhanced bioavailability and inhibits invasion and metastasis in colorectal cancer” (Scientific Reports, 2018).
Values joined by “and” are separate entries in the source; they are usually repeats but may differ in a detail not shown here. Identical values can stand only once.

Tests used:
[1] = Usnate distribution by LC-MS/MS after oral administration in CT26 syngeneic mouse tumor xenograft model; format: in vivo; conditions: 30 mg/kg oral, 16 h after dosing; CT26 xenograft mice
Method: Stock solutions (10 mM) of UA or KU were prepared by dissolution in DMSO. Stock standard solutions were stored at −20 °C. A working standard solution was prepared by dilution of the stock standard solution with a mixture of acetonitrile-water (1:1, v/v). The working standard solution was serially diluted to prepare a concentration series of 0.975, 3.9, 15.6, 62.5, 250, 1000, and 4000 nM in 50% acetonitrile.
Skin tumor xenografts were established using CT26 cells. After 7 days of inoculation and gross tumor formation, UA or KU at 30 mg/kg was administered orally, and tumor, liver, and plasma samples were collected after 16 h (n = 9 each). Mouse tumor and liver samples were homogenized in four volumes of ice-cold deionized water. Plasma and homogenized tissue samples were prepared for analysis in a 96-well cluster tube plate by protein precipitation. A volume of 30 µL of each sample was transferred to eight-well tube strips placed in an 8 × 12 rack (VWR, Emeryville, CA, USA). Four volumes of ice-cold extraction solution (acetonitrile) containing 4-methylumbelliferone (4-MUF, internal standard) were added and vortexed for 10 min. After sonication for 30 min, samples were placed on ice for 1 h. The 96-well cluster tube plate was centrifuged at 1000 × g for 10 min, and the supernatant was analyzed by LC-MS/MS. Standard samples were prepared in the same manner using a blank matrix.
Samples were analyzed with the Prominence UPLC system (Shimadzu, Japan) equipped with an API 3200 QTRAP™ LC-MS/MS system (Applied Biosystems, Foster City, CA, USA). Sample volumes of 10 μL were injected into an Aquity HSS UPLC C18 column (2.5 × 100 mm, 1.8 µm i.d.; Waters, Milford, MA, USA) and maintained at 30 °C. The column was pre-equilibrated in 100% v/v solvent A (deionized water containing 0.1% v/v formic acid)/0% v/v solvent B (acetonitrile containing 0.1% v/v formic acid) at a flow rate of 0.3 mL/min. […] The samples were analyzed via multiple reaction monitoring. […]

[2] = system: CAPN1, CDC42, CFL1, IGF1, WASF1, and WASL in Caco2 cells; test: Cell motility-related gene expression (RT2 profiler PCR / qRT-PCR) in Caco2 cells; format: cell-based, human; conditions: same concentration for UA and KU
Method: The RT² Profiler™ PCR Array (330231, SA Biosciences, Qiagen, Courtaboeuf, France) was used to examine the expression patterns of 84 genes involved in human cell motility as previouslydescribed. The manufacturer’s instructions were strictly followed. Gene expression levels were analyzed using the web-based software ‘RT2 Profiler PCR Array Data Analysis version 3.5′. Six cell motility-related genes, including CAPN1, CDC42, CFL1, IGF1, WASF1, and WASL, were selected as candidates.
Quantitative RT-PCR (qRT-PCR) was performed as previously described. Briefly, total RNA ([…]) isolated from UA- or KU-treated Caco2 cells using RNAiso Plus (TaKaRa, Otsu, Shiga 520–2193, Japan) was used to synthesize cDNA using a M-MLV reverse transcriptase kit (Invitrogen, Carlsbad, CA, USA) and SYBR green (Enzynomics, Seoul, Korea). […]

[3] = Hydrolytic stability at pH 4–7; format: physicochemical; conditions: pH range of 4–7, room temperature
Method: To determine whether the salt form of UA improved its bioavailability, the amount and concentration of usnate in the tumors, liver, and plasma of CT26 syngeneic tumor xenograft-bearing mice were measured by LC-MS/MS analysis. UA or KU was administered orally at a dose of 30 mg/kg at 7 days after CT26 cell inoculation, and the tumor tissues, liver tissues, and plasma of mice were collected after 16 h. […] Assuming that the density of tumor tissue is 0.1 to 1.0 mL/g, the concentration of usnate in tumor tissue is about 1.51 to 15.1 μM. Similarly, the amounts of usnate detected in liver tissues were 0.2788 ± 0.034 nmol/g of tissue for UA and 2.5789 ± 0.402 nmol/g of tissue for KU administered mice (Fig. 2C); the plasma concentrations of usnate were 0.181 ± 0.016 μM for UA and 1.690 ± 0.122 μM for KU administered mice (Fig. 2D).
Supplementary Figure 3. The stability of UA at the pH range of 4–7 in room temperature. (A) UA stability at pH 7.0. (B) UA stability at pH 6.8. (A) UA stability at pH 6.0. (A) UA stability at pH 4.5

[4] = system: Twist, Snail, and Slug protein in Caco2 cells; test: Western blotting of EMT markers in Caco2 cells; format: cell-based, human; conditions: 24 h
Method: Cells treated with UA or KU for 24 h were washed twice with ice-cold PBS and lysed in lysisbuffer. Antibodies against E-cadherin (61018, BD Biosciences, San Diego, CA, USA), N-cadherin (610921, BD Biosciences), Snail/Slug (ab180714, Abcam, Cambridge, MA, USA), Twist (ab49254, Abcam), PARP (9542, Cell Signaling), Caspase-3 (9662, Cell Signaling), α-Tubulin (2125, Cell Signaling), and ZEB2 (HPA003456, Sigma) were detected with horseradish peroxidase-conjugated secondary antibody (Thermo Fisher Scientific, Waltham, MA, USA) with the use of Immobilon Western Chemiluminescent HRP Substrate Kit (Merck Millipore, Billerica, MA, USA) and luminescence imaging (Image Quant LAS 4000 mini). Multi-Gauge 3.0 was used to measure bands, and relative density was calculated based on the density of the α-tubulin bands in each sample. Expression of values were as arbitrary densitometric units corresponding to signal intensity.

[5] = system: N-cadherin, Snail, Twist, Slug, and ZEB2 mRNA in Caco2 cells; test: qRT-PCR of EMT markers in Caco2 cells; format: cell-based, human; conditions: 5 μM
Method: Quantitative RT-PCR (qRT-PCR) was performed as previously described. Briefly, total RNA ([…]) isolated from UA- or KU-treated Caco2 cells using RNAiso Plus (TaKaRa, Otsu, Shiga 520–2193, Japan) was used to synthesize cDNA using a M-MLV reverse transcriptase kit (Invitrogen, Carlsbad, CA, USA) and SYBR green (Enzynomics, Seoul, Korea). The primers used for real-time PCR were as follows: E-cadherin (forward) 5′-[…]-3′ and (reverse) 5′-[…]-3′; N-cadherin (forward) 5′-[…]-3′ and (reverse) 5′-[…]-3′; Snail (forward) 5′-[…]-3′ and (reverse) 5′-tgggagacacatcggtcga-3′; Twist (forward) 5′-cgggagtccgcagtctta-3′ and (reverse) 5′-[…]-3′; Slug (forward) 5′-[…]-3′ and (reverse) 5′-[…]-3′; ZEB1(forward) 5′-atgacacaggaaaggaagg-3′ and (reverse) 5′-agcagtgtcttgttgtag-3′; ZEB2 (forward) 5′-caagaggcgcaaacaagcc-3′ and (reverse) 5′-[…]-3′; CAPN1 (forward) 5′-[…]-3′ and (reverse) 5′-[…]-3′; CDC42 (forward) 5′-[…]-3′ and (reverse) 5′-[…]-3′; CFL1 (forward) 5′-caaggatgccatcaagaa-3′ and (reverse) 5′-atccttagcctcctcgta-3′; IGF1 (forward) 5′-[…]-3′ and (reverse) 5′-[…]-3′; WASF1 (forward) 5′-[…]-3′ and (reverse) 5′-[…]-3′; WASL (forward) 5′-[…]-3′ and (reverse) 5′-[…]-3′; and GAPDH (forward) 5′-[…]-3′ and (reverse) 5′-[…]-3′. qRT-PCR reactions and analyses were performed using CFX (Bio-Rad, Hercules, CA, USA).

[6] = system: CT26 cells expressing firefly luciferase (CT26-Fluc); test: Orthotopic liver metastasis model (CT26-Fluc, intrasplenic injection); format: in vivo, BALB/c mice; conditions: 5 or 10 mg/kg intraperitoneal
Method: Five-week-old male BALB/c mice with pathogen-free condition were obtained from Orient Company (Seongnam, Korea). According to the Guiding Principles in the Care and Use of Animals (DHEW publication, NIH 80–23), the handling of animals and all in vivo experiments were performed. The Chonnam National University Medical School Research Institutional Animal Care and Use Committee approved the experimental protocol.
A syngeneic mouse model of colorectal cancer metastasis to the liver was established by infusion of tumor cells into the portal system via intrasplenic injection. […] For optical live imaging in this model, a splenectomy was performed immediately after inoculation of tumor cell, and the firefly luciferase activity was analyzed at several time points with the Xenogen system. […] Weight of tumor was determined by subtracting the average weight of liver of normal mice (n = 4) from the weight of total tumor-bearing liver with addition of the weight of total extrahepatic tumors. […] To evaluate inhibition of tumor growth, mice were analyzed every 7 days with the use of optical imaging. […] Metastatic tumor nodules in the liver with a diameter of >1.0 mm were counted using a microscope, and a metastasis score was assigned based on nodule size as follows: 0 (no gross metastasis), 1 (tumor size >1 mm), and 10 (tumor size >5 mm). […]

[7] = system: colorectal cancer cells (HCT116, DLD1, SW480, HT29, SW620, Caco2, COLO320, CT26); test: Cell viability assay (MTT); format: cell-based, human; mouse (CT26); conditions: 48 h, 12.5–100 μM
Method: The human colorectal cancer cell lines HCT116, DLD1, SW480, HT29, SW620, Caco2, and COLO320, and the mouse colorectal cancer cell line CT26, were used in this study. Cells were cultured in DMEM supplemented with 10% fetal bovine serum and 1% Penicillin-Streptomycin solution under a humidified 5% CO2 atmosphere at 37 °C in an incubator.
Colorectal cancer cell growth and survival were detected with the colorimetric quantification of 3-(4,5-dimethylthiazol-2-yl)-2,5-diphenyltetrazolium bromide using the MTT assay. Briefly, cells were seeded and cultured in 96-well plates (2.5 × 10^3 cells/well), and treated with UA or KU for 48 h. After DMSO dissolution, the absorbance at 540 nm was determined using a microplate reader with Gen 5 (2.03.1) software (BioTek Eon, VT, USA).

[8] = Water solubility by μSol Method; format: physicochemical; conditions: 25 °C, pH 7.4, μSol Method with DMSO stock solution
[9] = system: Caco2, HCT116, and CT26 cells; test: Cell invasion assay (Boyden chamber); format: cell-based, human; mouse (CT26); conditions: 5 μM, 24 h, vs control
Method: Invasion assays were performed in Boyden chambers (Corning, New York, USA)[16]. A 120 μL Cells (2 × 10^6) suspended in medium (DMEM containing 0.2% BSA dissolved in PBS) treated with or without UA or KU were seeded in the upper transwell chamber (Corning, New York, USA) coated with gelatin. Then, fibronectin (10 μg/mL) was added into the lower chamber medium (400 μL) as a chemotactic agent.Then invaded cells adhering to the underneath of upper chamber were fixed and stained with the Diff Quik kit (Sysmex) after 24 h of incubation. The quantitation of the cells were performed under an upright microscope (5 fields/chamber). Each invasion assay was repeated in three independent experiments.

With Usnic acid [UA] the “amount of usnate in liver tissues” value [1] was 0.2788 ± 0.034 nmol/g of tissue, the “amount of usnate in tumor tissues” value [1] was “undetectable” and the “plasma concentration of usnate” value [1] was 181 ± 16 nM. For the same substance, the “expression of cell motility-related genes CAPN1, CDC42, CFL1, IGF1, WASF1, and WASL” value [2] was “only CFL1 and IGF1 gene expression levels were decreased”, the hydrolytic stability [3] was “consistent” and the “protein level of Twist, Snail, and Slug” value [4] was “downregulated”. For the same substance, the “mRNA levels of N-cadherin, Snail, Twist, Slug, and ZEB2” value [5] was “significantly decreased”, the “inhibitory effect on metastasis in vivo” value [6] was “no significant inhibitory effect on metastasis” and the metastasis score ([6]; six or ten times within 2 weeks, vs control) was “did not detect a statistically significant difference”. For the same substance, the “cytotoxic activity (cell viability)” value [7] was “showed cytotoxic activity in all the tested colorectal cancer cells”, the water solubility [8] was 52.2 ± 2.90 μM and 17.7 ± 0.20 μg/mL and the “number of invaded cells / invasion” value [9] was “lower in the UA-treated groups than in the control groups”.
